# Reference: PubChem BioAssay (NCI)
#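 1) Cells in 96-well plates. 2) Compound, 48 h, 5 concentrations. 3) Linear interpolation between surrounding doses. 4) Unreached endpoint = highest concentration. Here, GI50 denotes the concentration required for 50% inhibition of growth. At the TGI there is no net growth.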
# Legend:
# Test in all cases: inhibition of tumour cell growth, NCI panel, 48 h
# [1] = tested on: 786-0 renal
# [2] = tested on: HCT-116 colon
# [3] = tested on: HL-60(TB) leukemia
# [4] = tested on: HS 578T breast
# [5] = tested on: LOX IMVI melanoma
# [6] = tested on: M14 melanoma
# [7] = tested on: MCF7 breast
# [8] = tested on: OVCAR-3 ovarian
# [9] = tested on: OVCAR-5 ovarian
# [10] = tested on: SF-539 CNS
Compound,TGI [1] [µM],TGI [2] [µM],TGI [3] [µM],TGI [4] [µM],TGI [5] [µM],TGI [6] [µM],TGI [7] [µM],TGI [8] [µM],TGI [9] [µM],TGI [10] [µM],GI50 [2] [nM],GI50 [3] [nM],GI50 [4] [µM],GI50 [5] [nM],GI50 [6] [nM],GI50 [7] [µM],GI50 [8] [µM],GI50 [9] [nM],GI50 [10] [nM]
CC(C)(C)COS(=O)OCC(C)(C)C,> 100,> 100,> 100,> 100,> 100,> 100,> 100,> 100,> 100,> 100,,,,,,,,,
COc1cc2cc[n+](C)c(Cc3ccc(Oc4cc(Cc5c6cc(OC)c(OC)cc6cc[n+]5C)ccc4OC)cc3)c2cc1OC,> 100,> 100,> 100,> 100,> 100,> 100,> 100,> 100,> 100,> 100,,,,,,,,,
CC(C)C(=O)CC(c1ccc(Br)cc1)N1N=C(C(C)C)CC1c1ccc(Br)cc1 (stereo unspecified),,> 100,,,> 100,> 100,,> 100,> 100,> 100,,,,,,,,,
CC(CCCCNC(=O)OC(C)(C)C)NC(=O)NC(C)CCCCNC(=O)OC(C)(C)C (stereo unspecified),> 100,> 100,> 100,> 100,> 100,> 100,> 100,> 100,> 100,,,,,,,,,,
C[C@]12O[C@@]3(C)O[C@@]3(C)[C@]3(C)O[C@]3(C)[C@@]1(C)O2,> 100,> 100,,> 100,> 100,> 100,> 100,,> 100,,,,,,,,,,
Cc1c2ccccc2cc2cccc[n+]12,> 100,> 100,> 100,73,> 100,,> 100,> 100,> 100,> 100,,,,,,,,,
Cc1ccc(S(=O)(=O)Nc2cc(=O)[nH]c3c2CCC3)cc1,> 100,> 100,> 100,> 100,> 100,> 100,> 100,> 100,> 100,> 100,,,,,,,,,
C/C=C/C(O)P(=O)(OC)OC (stereo unspecified),0.36,0.835,0.591,0.915,0.392,0.463,1.01,0.783,1.22,0.74,,,,,,,,,
c1ccc(C[N+]23C(CC[C@H]2c2ccccc2)CC[C@H]3c2ccccc2)cc1 (stereo partly specified),> 100,> 100,57.4,> 100,> 100,93,> 100,90,> 100,,,,,,,,,,
Clc1cccc(/C=c2\nc(-c3ccccc3)n3c2nc2ccccc23)c1,> 100,> 100,> 100,> 100,> 100,> 100,> 100,> 100,> 100,> 100,,,,,,,,,
Nc1csc(-c2scc3c2OCCO3)c1N,33.3,46.4,50.8,> 100,30.9,35.2,33.4,36.1,39.9,47.4,,,,,,,,,
CCCC(=O)Nc1cc(/C=C/C(=O)N2CC(CCl)c3c2cc(OC(C)=O)c2[nH]cc(C)c32)n(C)c1 (stereo unspecified),,,0.00101,0.00193,> 0.25,,> 0.0759,,,0.000107,,,,,,,,,
C=CCc1cccc(/C(O)=C/C(=O)/C=C/c2ccccc2Cl)c1O,> 71.6,> 54.3,,,24.6,> 100,> 100,76.3,> 100,72,,,,,,,,,
CN(CCCN1CCCC1)CCCN(C)C(=O)Cc1ccc(Cl)c(Cl)c1,29.2,39.3,37.1,36,27.9,13.9,31.6,> 88.4,78.1,> 53.2,,,,,,,,,
CC1(C)CC(C(=O)OCCCCCCCCCCC[P+](c2ccccc2)(c2ccccc2)c2ccccc2)C(C)(C)N1O (stereo unspecified),,1.08,0.13,1.84,1.05,1.08,0.836,0.835,1.38,1.28,185,35.5,0.354,207,302,0.187,0.132,386,324
NC(N)=N/N=C/c1c(-c2cccs2)nc2n1CCS2,,,,77.4,,,35.1,32.7,,33.3,,,18.8,,,17.6,15.5,,19200
CCOC(=O)c1cccc(N=Nc2ncc(/C=C/C(=O)OC)[nH]2)c1,> 100,69.7,30,> 100,51,76,86.2,71.1,> 100,> 100,,,,,,,,,
CCOC(=O)/C=C/C1=C(Br)[C@@]2(C)CC[C@@H]3c4ccc(O)cc4CC[C@H]3[C@@H]2C1,25.4,26.6,34,28.9,19.6,23.9,26.7,20.5,28.5,30.7,,,,,,,,,
CC12OC(C(=O)C13CCC3)C1C(=O)c3c(O)ccc(O)c3C(=O)C12 (stereo unspecified),,1.78,2.39,17.6,> 100,2.04,6.2,2.71,4.29,15.8,571,569,4.38,2330,669,1.49,0.62,2140,2990
COc1cc(/C=C2\CC3C4CC[C@H]5C[C@@H](O)CC[C@]5(C)C4CC[C@]3(C)\C2=N\O)cc(OC)c1OC (stereo partly specified),34.8,21.4,55.8,75.7,64.2,37.3,26.8,11,> 100,34.1,,,,,,,,,
CCCCSCCC(N)P(=O)(O)O (stereo unspecified),,> 100,> 100,> 100,> 100,> 100,> 100,> 100,> 100,,,,,,,,,,

Compound,TGI [1] [µM],TGI [2] [µM],TGI [3] [µM],TGI [4] [µM],TGI [5] [µM],TGI [6] [µM],TGI [7] [µM],TGI [8] [µM],TGI [9] [µM],TGI [10] [µM],GI50 [2] [nM],GI50 [3] [nM],GI50 [4] [µM],GI50 [5] [nM],GI50 [6] [nM],GI50 [7] [µM],GI50 [8] [µM],GI50 [9] [nM],GI50 [10] [nM]
OC1CCSc2ccccc21 (stereo unspecified),,> 100,,,> 100,> 100,,> 100,> 100,> 100,,,,,,,,,
CS(=O)(=O)Nc1ccc(NCc2cnc3ccc4[nH]cccc4c23)cc1,> 100,51.8,52.6,57,> 100,46.4,94.9,92.9,> 100,68.3,,,,,,,,,
COc1ccc(-n2nc(C(=O)c3ccccc3)c3nn4c(=O)cc(-c5ccccc5)nc4nc32)cc1,,> 100,> 100,> 100,> 100,> 100,> 100,> 100,,> 100,> 100000,29600,69.9,34500,30300,30.7,30.7,,41800
Cc1cc(=O)[nH]c(S(=O)(=O)NC(=O)Nc2cccc(Cl)c2)n1,> 100,> 100,> 31.2,> 100,> 100,> 100,> 100,> 100,> 100,> 100,,,,,,,,,
CN(C)c1ccc(/C=C2\C[C@H]3[C@@H]4CC=C5C[C@@H](O)CC[C@]5(C)[C@H]4CC[C@]3(C)[C@H]2O)cc1,42,28.1,> 100,50.8,27.1,41.3,34.4,59.8,36.2,22.1,,,,,,,,,
CC(NC(=O)c1ccc(OP(=O)(OCc2ccc([N+](=O)[O-])o2)N(C)CCCCCl)cc1)c1ccc(OCC2CCCCC2)c(C(N)=O)c1 (stereo unspecified),> 37.2,9.5,12.3,> 41.6,5.43,22.7,17.1,15.7,> 47.6,10.1,,,,,,,,,
O=S(C(c1ccccc1)=P(c1ccccc1)(c1ccccc1)c1ccccc1)c1ccc(Cl)cc1 (stereo unspecified),> 100,79.5,45,55.3,> 100,> 100,> 100,> 100,> 100,> 100,,,,,,,,,
CN(CCCNC(=O)c1nn(-c2ccccc2)c2c1Cc1ccccc1-2)CCCNC(=O)c1nn(-c2ccccc2)c2c1Cc1ccccc1-2,2.9,2.87,2.5,,,2.61,2.99,3.13,3.26,2.97,,,,,,,,,
Oc1ccc(Cl)cc1C1=Nn2c(COc3ccc4c(c3)CCCC4)nnc2SC1,,19.4,38.2,30,29.3,29.5,32.5,29.8,34.6,33.4,,,,,,,,,
C=C(CN(C)C)C(=O)c1ccccc1Cl,34.3,34,29.6,,33.4,33.3,,34.9,> 60.4,> 54.6,,,,,,,,,
C#C[C@]1(O)[C@@H](CO)O[C@@H](n2ccc(=O)[nH]c2=O)[C@@H]1O,,,> 100,> 23.5,1.57,6.77,> 100,,> 100,1.39,,,,,,,,,
CCC1=C(CC2NCCc3cc(OC)c(OC)cc32)CC2c3ccccc3CCN2C1 (stereo unspecified),35.6,> 100,46.5,49.7,26.3,27.3,42.7,> 100,> 100,21.4,,,,,,,,,
Cc1ccc([N+](=O)[O-])cc1S(=O)(=O)Nc1ccc(C2=NN(C(=O)c3ccccc3)C(c3ccccc3O)C2)cc1 (stereo unspecified),27.9,28.4,69.4,> 100,45.6,48.6,26.7,56.8,60.6,38.4,,,,,,,,,
O=C1CNc2cc(N3CCCCC3)ccc2N1,,,> 100,> 100,,> 100,> 100,> 100,> 100,> 100,,,,,,,,,
CN(CCc1ccccn1)c1ccc2c(c1)Cc1ccccc1-2,> 100,> 100,59.3,9.92,> 100,94.3,> 100,> 100,> 100,,,,,,,,,,
O=C(/C=C/c1ccc(O)c(O)c1)O[C@H]1CCCC[C@@H]1OC(=O)/C=C/c1ccc(O)c(O)c1,46,19,,> 100,17,77.9,70.2,26.7,33.9,> 100,,,,,,,,,
O=C(NN1CCCCC1)c1cc2cc(CCl)ccc2oc1=O,32,38,37.7,36.4,35.9,49.4,> 100,39.3,31.8,> 100,,,,,,,,,
COc1ccc2c3c([nH]c2c1)[C@H](C=C(C)C)N1C(=O)[C@@H]2CCCN2C(=O)[C@@H]1C3,> 100,> 100,> 100,> 100,> 100,> 100,> 100,> 100,> 100,83,,,,,,,,,
CS(=O)(=O)Nc1cccc(-c2ccc3ncnc(Nc4cncc(Cl)c4)c3c2)c1,,,9.2,6.41,,,,,> 100,5.82,,2660,1.35,,,,,2050,2060
COc1ccc(-n2nnc3c(C#N)c(C)c(-c4ccccc4)n3c2=O)cc1,8.24,2.65,,> 100,> 100,> 26.7,> 100,44.6,> 57.6,> 20,,,,,,,,,
